Source: PubChem BioAssay (NCI)
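Exposure lasted 48 hours, with cells grown in 96-well plates and compounds tested at five concentrations. GI50 = concentration required for 50% inhibition of growth. Definition used: TGI = concentration required for complete inhibition of growth.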

Columns and labels:
Test in all cases: NCI anticancer screen, dose series, 48 h
KM12 colon = tested on: KM12 colon
NCI-H226 lung = tested on: NCI-H226 lung
MOLT-4 leukemia = tested on: MOLT-4 leukemia
HOP-92 NSCLC = tested on: HOP-92 NSCLC
SK-OV-3 ovarian = tested on: SK-OV-3 ovarian
ACHN renal = tested on: ACHN renal
OVCAR-8 ovarian = tested on: OVCAR-8 ovarian
NCI-H460 lung = tested on: NCI-H460 lung
A549 NSCLC = tested on: A549 NSCLC
SNB-19 CNS = tested on: SNB-19 CNS

SMILES	TGI (KM12 colon) [µM]	TGI (NCI-H226 lung) [µM]	TGI (MOLT-4 leukemia) [µM]	TGI (HOP-92 NSCLC) [µM]	TGI (SK-OV-3 ovarian) [µM]	TGI (ACHN renal) [µM]	TGI (OVCAR-8 ovarian) [µM]	TGI (NCI-H460 lung) [µM]	TGI (A549 NSCLC) [µM]	TGI (SNB-19 CNS) [µM]	GI50 (KM12 colon) [µM]	GI50 (NCI-H226 lung) [µM]	GI50 (MOLT-4 leukemia) [µM]	GI50 (HOP-92 NSCLC) [µM]	GI50 (SK-OV-3 ovarian) [µM]	GI50 (ACHN renal) [µM]	GI50 (OVCAR-8 ovarian) [µM]	GI50 (NCI-H460 lung) [µM]	GI50 (A549 NSCLC) [µM]	GI50 (SNB-19 CNS) [µM]
COc1cc2c3cc1Oc1c(O)c(OC)cc4c1[C@H](Cc1ccc(cc1)Oc1cc(ccc1O)C[C@H]3N(C)CC2)N(C)CC4	23.7	58.8	> 43.8	39.4	79.3	61	37.3	26.8	39.6	55.1										
O=C(c1ccc(Cl)cc1)c1ccc(OCC(=O)N2CCN(c3ccccc3)CC2)cc1	> 100	> 100	> 100	> 100	> 100	> 100	> 100	> 100	> 100	> 100										
CC(=O)O[C@H]1CC[C@@]2(C)C(=CC[C@@H]3[C@@H]2CC[C@]2(C)C(c4cccnc4)=CC[C@@H]32)C1	> 100	> 100	> 100	32.5	95.8	43.9	> 100	> 100	> 100	> 100	3.73	17.7	6.3	3.08	5.83	4.88	19.3	5.91	10.4	24.1
O=c1[nH]nc(Cc2ccccc2)n1/N=C/c1c[nH]c2ccccc12	> 100	> 100	> 100	> 100	> 100	> 100	> 100	> 100	> 100	> 100										
Cc1ccc(C(=O)N(C2CCCCC2)C2CCCCC2)cc1N=NN(C)C	18.7	39.5	76.7	23.4	33.5	22.4	27.5	35.5	31.8	26.4										
Cc1ccc(F)cc1NC(=O)O/N=C(\Cl)C(C)C	34.8	28.5	4.83	7.07	36.9	4.41	35.9	86	38.2	> 56.8										
COc1ccc2c(c1)OC(c1cccnc1)C(c1ccccc1)C2=O (stereo unspecified)	> 100	> 100	> 100	> 100	> 100	> 100	> 100	> 100	> 100	> 100										
Cn1ccnc1S/C(=C\C=C(C#N)C#N)c1ccc(Cl)cc1	6.22	> 22.8	6.25	4.18	38.8	2.09	3.57	27.2	22.6	10.8		3.97								
N/N=C(\C(=O)Nc1c(Cl)cc([N+](=O)[O-])cc1Cl)C(c1cnc2ccc([N+](=O)[O-])cc2n1)[N+](=O)[O-] (stereo unspecified)	> 100	> 100	> 100	> 100	> 100	> 100	> 100	> 100	> 100	> 100										
Cc1ccc2c(=O)cc(-c3csc4ccccc34)[nH]c2n1	0.86	0.0863	1.09	> 81	> 32	12.9	5.55	> 33.9	19.5	15.3										
Oc1ccc(/C=C\c2nnc(/C=C\c3ccc(O)c(O)c3)s2)cc1O	18.9	20	11.7	29.6	26.5	15.2	> 48.4	15.6	> 52.8	23.2										
CC(=O)C1CC(C)=CCC12C(=O)Nc1ccccc12 (stereo unspecified)	> 100	> 100	> 100	> 100	> 100	> 100	> 100	> 100	> 100	> 100										
NCCC(N)C(=O)O (stereo unspecified)	> 100	> 100	> 100	> 100	> 100	> 100	> 100	> 100	> 100	> 100										
CN1CC2=C(OC(N)=C(C#N)C2c2cccs2)/C(=C/c2cccs2)C1 (stereo unspecified)	> 78.9	> 100	> 26.5	> 100	> 100	38.7	> 67.7	58.9	> 75.2	> 100										
CC(C)(CN)CN	> 100	> 100	> 100	> 100	> 100	> 100	> 100	> 100	> 100	> 100										
COc1ccc2nc3cc(Cl)ccc3c(NCCCCCC(=O)NC(COc3cnc4c(ccc5cccnc54)c3)COc3cnc4c(ccc5cccnc54)c3)c2c1	> 100	21.8	11.6	> 100	> 100	> 100	> 100	23.1	> 100	> 100										
N=C(N)SCCON1C(=O)c2ccccc2C1=O	> 100	> 100	> 100	> 100	> 100	> 100	> 100	> 100	> 100	> 100										
CCCCOC(=O)C(=O)C(CCC(=O)c1ccc(C)cc1)C(=O)C=C(C)C (stereo unspecified)	> 100	> 100	> 100	> 100	> 100	> 100	> 100	> 100	> 100	> 100										
CCNC(=O)Nc1cccc(C)n1	> 100	> 100	> 100	> 100	> 100	> 100	> 100	> 100	> 100	> 100										
Cc1ccc(C)n2c1nc1ccc3ccccc3c12	> 100	> 100	> 100	> 100	> 100	> 100	> 100	> 100	> 100	> 100										

SMILES	TGI (KM12 colon) [µM]	TGI (NCI-H226 lung) [µM]	TGI (MOLT-4 leukemia) [µM]	TGI (HOP-92 NSCLC) [µM]	TGI (SK-OV-3 ovarian) [µM]	TGI (ACHN renal) [µM]	TGI (OVCAR-8 ovarian) [µM]	TGI (NCI-H460 lung) [µM]	TGI (A549 NSCLC) [µM]	TGI (SNB-19 CNS) [µM]	GI50 (KM12 colon) [µM]	GI50 (NCI-H226 lung) [µM]	GI50 (MOLT-4 leukemia) [µM]	GI50 (HOP-92 NSCLC) [µM]	GI50 (SK-OV-3 ovarian) [µM]	GI50 (ACHN renal) [µM]	GI50 (OVCAR-8 ovarian) [µM]	GI50 (NCI-H460 lung) [µM]	GI50 (A549 NSCLC) [µM]	GI50 (SNB-19 CNS) [µM]
COC(=O)/C=C/c1ccccc1N=[S@](C)(=O)c1ccc(C)cc1	> 100	> 100	> 100	> 100	> 100	> 100	> 100	49.9	> 100	> 100										
CC(C)(CO)CNc1cc(=O)[nH]c(N)n1	> 100	> 100	> 100	> 100	> 100	> 100	> 100	> 100	> 100	> 100										
O=[N+]([O-])c1cccc(-c2csc(N=Nc3c(O)[nH]c4ccccc34)n2)c1	> 100	47.6	69.6	46.5	> 100	> 100	30	31.8	44	82.2										
COc1ccc(N(C(=O)Nc2ccc(Cl)c(Cl)c2)c2ccccc2)cc1	> 10	> 10	> 10	> 10	> 10	> 10	> 10	> 10	> 10	> 10										
COc1ccc(N2C=Nn3c(nc4sc(C)c(C)c4c3=O)C2)cc1	> 100	> 100	> 100	> 100	> 100	> 100	> 100	> 100	> 100	> 100										
CC(C)Oc1c(-c2c(OC(C)C)c(=O)c2=O)c(=O)c1=O	> 59.6	> 100	> 68.1	> 100	> 100	> 100	> 71.9	> 100	> 100	> 100										
CC(C)/C(Cl)=N/OC(=O)Nc1ccc(F)c(Cl)c1	30.6	30.9	4.72	3	30	4.13	32.4	35.4	37.4	45.8										
CCN(CC)Cc1nc2sc3c(c2c(=O)n1-c1ccccc1)CCCC3	> 100	33	56.7	51.4	83.3	55.2	32.7	40.8	55	> 100										
CCc1cccc(C(C)C)c1NC(=O)C(=O)C(Cc1nc2ccccc2[nH]c1=O)C(=O)OC (stereo unspecified)	> 100	> 100	> 100	> 100	> 100	> 100	> 100	> 100	> 100	> 100										
O=C(Nc1ccccc1)O/N=C(/CBr)c1ccccc1	44.2	60.8	> 100	33.2	95	33.2	44.1	43.1	> 100	53.9										
COc1cc2c(cc1C[N+](C)(C)CSc1ccccc1)-c1ccccc1CC2	6.92	23.6	9.59	26.2	26.1	28.6	14.6	9.43	45.8	10.7										
CC(=O)NNc1nc(C)c(C(/C=C/c2ccc3c(c2)OCO3)=N/Nc2ccccc2)s1	> 100	> 100	> 100	> 100	> 100	> 100	> 100	> 100	> 100	> 100										
c1ccc(CNc2c3c(nc4ccccc24)CCC3)cc1	40.3	35.9	51	25.9	36.2	40.9	31.7	25	38.9	67.7										
Cc1c(C)c(C)c(-n2[nH]c(=O)n(C)c2=O)c(C)c1C	> 100	> 100	> 100	> 100	> 100	> 100	> 100	> 100	> 100	> 100										
CCOC(C[Se]CC(OCC)OCC)OCC	> 100	46.4	> 100	> 100	> 100	> 100	> 100	> 100	> 100	> 100										
COC(=O)Cc1ccc2c(c1)Sc1ccc(CC(=O)OC)cc1N2C	> 100	> 93.5	> 100	> 100	> 100	> 100	> 100	> 100	> 90.3	> 100										
CCCC/C=C1\CCC(CN2CCCCC2)C1=O (stereo unspecified)	> 33.8	63.1	18.4	21	> 56.2	44.3	33.1	55.5	52.9	49.4										
C=CCC(C)C12CCNC(Cc3ccc(O)cc31)C2C (stereo unspecified)	> 100	> 100	> 100	> 100	> 100	> 100	> 100	> 100	> 100	> 100										
Cc1nc2ccc(S(=O)(=O)Nc3ccc(Cl)cc3)cc2c(=O)n1NC(=O)CNc1ccc(Cl)cc1	> 100	> 100	> 100	> 100	> 100	> 100	> 100	> 100	> 100	> 100										
